The results in this text go back to patent publication US6465187B1, “Method of treatment” (Innoventus Project AB, priority 2000, dated 2002).

One assay concerns A1 gene. The assay can be described thus: RNAse Protection Assay (RPA) of A1 gene expression in MCP5/L mast cells. It is filed as cell-based, mouse.
The test system of assay [1] is MCP5/L cells. Kind of assay: Cell viability by trypan blue exclusion in medium deprived of serum and growth factors. It is filed as cell-based, mouse. The following applies: 4 days in medium deprived of serum and growth factors, FIG. 7.
Experimental: The growth factor dependent mouse mast cell line MCP5/L was maintained in the same medium described above. For cell viability assays, the cell suspension was mixed with the vital dye, trypan blue, and only the number of live cells was scored.
For cell viability assays, both the anitbody sensitization and the anitgen challenge were performed in RPMI medium supplemented with 0.5% BSA (Sigma) at 37° C. in a humidified incubator containing 5% CO2.
Cell viability measurement. Trypan blue exclusion assay was used in all of the cell survival experiments. In brief, cell suspension was mixed with the vital dye, trypan blue, and the number of live cells was scored.
Assay [2] has as its system MCP5/L cells. The settings on record: IgE-receptor cross-linkage 30 min, various concentrations of EDTA, FIG. 8B.
Experimental: Activation of mast cells in vitro. For FcεRI-dependent activation, MCP5/L cells were resuspended at 1×10^6 cells/ml and sensitized using a monoclonal murine IgE anti-TNP (trinitrophenyl) (IgEl-b4, ATCC, Manassas, Va.) antibody (15% hybridoma supernatant) for 90 min. The cells were washed twice with warm medium, followed by challenge with 1 μg/ml TNP-BSA for time periods indicated. For cell viability assays, both the anitbody sensitization and the anitgen challenge were performed in RPMI medium supplemented with 0.5% BSA (Sigma) at 37° C. in a humidified incubator containing 5% CO2. […]
Measurement of release. […] The reaction was stopped by adding glycine (0.2 M, pH 10.7) into each well and the absorbance was measured. Percentage of β-hexosaminidase release is calculated as the absorbance of the supernatant over that of the combination of supernatant and lysate. […]
Effects of cold incubation and EDTA treatment on A1 induction and mast cell degranulation. […] (B) and (C) levels of β-hexosaminidase (β-hex) in the supernatants from either control cells or cells stimulated through IgE-receptor cross-linkage for 30 min, in the absence or presence of various concentrations of EDTA (B), or in cold incubation (C), were determined as a measurement of activation and de-granulation by an enzymatic colorimetric assay

Like-named read-outs stand apart in the source and are kept apart here.

Experimental for A1 gene: Activation of mast cells in vitro. For FcεRI-dependent activation, MCP5/L cells were resuspended at 1×10^6 cells/ml and sensitized using a monoclonal murine IgE anti-TNP (trinitrophenyl) (IgEl-b4, ATCC, Manassas, Va.) antibody (15% hybridoma supernatant) for 90 min. The cells were washed twice with warm medium, followed by challenge with 1 μg/ml TNP-BSA for time periods indicated. For cell viability assays, both the anitbody sensitization and the anitgen challenge were performed in RPMI medium supplemented with 0.5% BSA (Sigma) at 37° C. in a humidified incubator containing 5% CO2. For gene regulation studies, all the incubations were carried out in RPMI medium supplemented with 5% fetal bovine serum and antibiotics on a rocker platform. In some experiments, cells were cross-linked in the medium containing 1 mM EDTA or cells were incubated in ice-cold water during FcεRI cross-linking. Where indicated, various inhibitors were introduced to test their effects on A1 regulation after FcεRI cross-linking. These include bisindolylmaleimid (100 nM), wortmannin (100 nM), SB 203580 (pyridinylimidazole compound, inhibitor of p 38 mitogen-activated protein kinase) (1 μM), PD 98059 (2-(2-amino-3-methoxyphenyl)-4-oxo-4H-[1]benzopyran, inhibitor of mitogen-activated protein kinase Kinase-1 (MEK1)) (10 μM), genistein (1 μM), suramin (100 μM), cyclosporin A (2 μg/ml), dexamethasone (1 μM) and cycloheximide (10 μg/ml). Dexamethasone and suramin were added 14 hr and 24 hr, respectively, before IgE sensitization. All the other inhibitors were added at the same time as FcεRI aggregation. […]
Isolation of RNA and RNAse Protection Assay (RPA) analysis. […] Pixel intensity was determined using a phosphoimaging device. Levels of each gene transcript were quantified by MacBas V2.2 (Fuji Photo Film Co. Ltd., Japan). […]

Take `C[C@@H]1C[C@@H]([C@H](O)CC2CC(=O)NC(=O)C2)C(=O)[C@@H](C)C1` [cycloheximide]: the “A1 induction by FcεRI aggregation in the presence of inhibitor” value in the assay on A1 gene (MCP5/L cells, FcεRI crosslinkage 6 hr, wortmannin 100 nM, cyclosporin A 2 μg/ml, cycloheximide 10 μg/ml, dexamethasone 1 μM, EDTA 1 mM, FIG. 8A, 9) is listed as “could completely block A1 induction”. Take `C[C@H](CCC(=O)O)C[C@H](C)C[C@H](C)C(=O)/C=C(\O)[C@H](C)C[C@H](C)C/C=C/[C@@H](C)[C@@H](O)[C@@H](C)[C@@H](O)C[C@@H]1CC[C@@](C)([C@H]2CC[C@@](C)([C@@H](C)O)O2)O1` [ionomycin]: in the assay with A1 gene (MCP5/L cells exposed for 6 hr, c48/80 at concentrations of up to 1 mg/ml, FIG. 7), the “A1 gene expression (transcription) induced by the compound alone” value is listed as “induced expression of A1”. In the assay on MCP5/L cells [1], the “Survival of mast cells treated with the compound” value is given as “promoted mast cell survival”.

As for `O=C(O)CN(CCN(CC(=O)O)CC(=O)O)CC(=O)O` [EDTA], in the assay on A1 gene, the “A1 induction by FcεRI aggregation in the presence of inhibitor” value is listed as “blocked A1 expression”. Besides, the “β-hexosaminidase release following FcεRI aggregation in the presence of the compound” value in the assay on MCP5/L cells [2] was “inhibit release of mast cell granular enzyme β-hexosaminidase”.
